# Data published in patent US5585491A, “Antibacterial agents” (Otsuka Pharmaceutical Co., Ltd., priority 1995, dated 1996).
# Read-outs that look alike come from different tables or passages of the source.
# How the values were obtained:
# Assay in all cases: In vitro antibacterial activity, microtitration dilution method (MIC)
# Format in all cases: cell-based
# [1] = test system: Streptococcus pneumoniae SV-1; conditions: SV1; Streptococcus pneumoniae SV-1, microtitration dilution; read-out: Minimal Inhibitory Concentration MIC
# Text: (§1) Agents & Chemoth., 6, 124 (1974), which is incorporated herein by reference.
# [2] = test system: Streptococcus faecalis MGH-2; conditions: Enterococcus faecalis, MGH2; Streptococcus faecalis MGH-2, microtitration dilution; read-out: Minimal Inhibitory Concentration MIC
# Text: as §1
# [3] = test system: Pseudomonas aeruginosa UI-18
# Text: as §1
# [4] = test system: Staphylococcus aureus UC-76; conditions: UC76; Staphylococcus aureus UC-76, microtitration dilution; read-out: Minimal Inhibitory Concentration MIC
# Text: as §1
# [5] = test system: Klebsiella pneumoniae MGH-2
# Text: as §1
# Escherichia coli Vogel = conditions: Escherichia coli Vogel, microtitration dilution; read-out: Minimal Inhibitory Concentration MIC
# Text: (§2) The compounds of the invention display antibacterial activity when tested by the microtitration dilution method as described in Heifetz, et al, Antimicr. Agents & Chemoth., 6, 124 (1974), which is incorporated herein by reference. By use of this method, the followed minimum inhibitory concentration values (MICs in μg/mL) were obtained for representative compounds of the invention.
# [6] = test system: Staphylococcus aureus H 228; conditions: H228; Staphylococcus aureus H 228, microtitration dilution; read-out: Minimal Inhibitory Concentration MIC
# Text: as §2
# [7] = test system: Enterobacter cloacae MA 2646
# Text: as §2
# [8] = test system: Providencia rettgeri M 1771; conditions: M1771; Providencia rettgeri M 1771, microtitration dilution; read-out: Minimal Inhibitory Concentration MIC
# Text: as §2
# [9] = test system: Streptococcus pyogenes C-203; conditions: C203; Streptococcus pyogenes C-203, microtitration dilution; read-out: Minimal Inhibitory Concentration MIC
# Text: as §2
# Proteus rettgeri M 1771 = conditions: Providencia rettgeri
# Text: as §1
# [10] = UI18, Pseudomonas aeruginosa UI-18, microtitration dilution, read-out: Minimal Inhibitory Concentration MIC
# [11] = MGH2, Klebsiella pneumoniae MGH-2, microtitration dilution, read-out: Minimal Inhibitory Concentration MIC
# [12] = MA2646, Enterobacter cloacae MA 2646, microtitration dilution, read-out: Minimal Inhibitory Concentration MIC
# [13] = M1771, Proteus rettgeri M 1771, microtitration dilution, read-out: Minimal Inhibitory Concentration MIC
# [14] = M1771, read-out: Minimal Inhibitory Concentration MIC
MIC [8] [µg/mL],SMILES,MIC [1] [µg/mL],MIC [2] [µg/mL],"MIC [3, 10] [µg/mL]",MIC [4] [µg/mL],"MIC [5, 11] [µg/mL]",MIC (Escherichia coli Vogel) [µg/mL],MIC [6] [µg/mL],"MIC [7, 12] [µg/mL]",MIC [9] [µg/mL],MIC (Proteus rettgeri M 1771; [13]) [µg/mL],MIC (Proteus rettgeri M 1771; [14]) [µg/mL],"MIC ([3]; Pseudomonas aeruginosa, UI18, read-out: Minimal Inhibitory Concentration MIC) [µg/mL]","MIC ([7]; Enterobacter cloacae, MA2646, read-out: Minimal Inhibitory Concentration MIC) [µg/mL]","MIC ([5]; Klebsiella pneumoniae, MGH2, read-out: Minimal Inhibitory Concentration MIC) [µg/mL]"
0.025,"Cc1c(F)c(N2CCC(N)C2)c(F)c2c1c(=O)c(C(=O)O)cn2C1CC1 (centres unmarked) [Ex. 2, 7-(3-Amino-1-pyrrolidinyl)-1-cyclopropyl-6,8-difluoro-1,4-dihydro-5-methyl-4-oxo-3-quinolinecarboxylic acid]",0.003,0.025,0.4,0.003,0.013,0.006,0.013,0.006,0.013,,,,,
0.2,"CCNCC1CCN(c2c(F)c(C)c3c(=O)c(C(=O)O)cn(C4CC4)c3c2F)C1 (centres unmarked) [Ex. 3, 1-Cyclopropyl-7-[3-[(ethylamino)methyl]-1-pyrrolidinyl]-6,8-difluoro-1,4-dihydro-5-methyl-4-oxo-3-quinolinecarboxylic acid]",0.003,0.025,0.8,0.003,0.1,0.05,0.013,0.1,0.006,,,,,
,"Cc1c(F)c(N2CCC(C)(CN)C2)cc2c1c(=O)c(C(=O)O)cn2-c1ccc(F)cc1F (centres unmarked) [Ex. 17e, 7-[3-(Aminomethyl)-3-methyl-1-pyrrolidinyl]-6-fluoro-1(2,4-difluorophenyl)-1,4-dihydro-5-methyl-4-oxo-3-quinolinecarboxylic acid]",0.013,0.2,3.1,0.013,0.8,0.4,0.05,0.4,0.025,0.8,,,,
,"Cc1c(F)c(N2CCC(N)C2)nc2c1c(=O)c(C(=O)O)cn2C1CC1 (centres unmarked) [Ex. 18, 7-(3-Amino-1-pyrrolidinyl)-1-cyclopropyl-6-fluoro-1,4-dihydro-5-methyl-4-oxo-1,8-naphthyridine-3-carboxylic acid]",0.013,0.05,0.2,0.013,0.025,0.013,0.25,0.013,0.025,,0.1,,,
,"Cc1c(F)c(N2CCNCC2)nc2c1c(=O)c(C(=O)O)cn2C1CC1 [Ex. 19, 1-Cyclopropyl-6-fluoro-1,4-dihydro-5-methyl-4-oxo-7-(1-piperazinyl)-1,8-naphthyridine-3-carboxylic acid]",0.1,0.2,,0.1,0.05,0.013,0.2,0.025,0.4,0.2,,0.4,,
,"Cc1c(F)c(N2CCC(N)C2)nc2c1c(=O)c(C(=O)O)cn2-c1ccc(F)cc1F (centres unmarked) [Ex. 22, 7-(3-Amino-1-pyrrolidinyl)-1-(2,4-difluorophenyl)-6-fluoro-1,4-dihydro-5-methyl-4-oxo-1,8-naphthyridine-3-carboxylic acid]",0.05,0.1,0.2,0.013,0.05,0.05,0.05,,0.05,,0.1,,0.05,
,"Cc1c(F)c(N2CC[C@@H]([C@H](C)N)C2)nc2c1c(=O)c(C(=O)O)cn2-c1ccc(F)cc1F [Ex. 23, 3R, 1'S-7-[3-(1-Aminoethyl)-1-pyrrolidinyl]-1-(2,4-difluorophenyl)-6-fluoro-1,4-dihydro-5-methyl-4-oxo-1,8-naphthyridine carboxylic acid]",0.003,0.013,0.2,0.003,,0.1,0.006,0.2,0.003,0.2,,,,0.1

SMILES,MIC [8] [µg/mL],MIC [1] [µg/mL],MIC [2] [µg/mL],"MIC [3, 10] [µg/mL]",MIC [4] [µg/mL],"MIC [5, 11] [µg/mL]",MIC (Escherichia coli Vogel) [µg/mL],MIC [6] [µg/mL],"MIC [7, 12] [µg/mL]",MIC [9] [µg/mL],MIC (Proteus rettgeri M 1771; [13]) [µg/mL],MIC (Proteus rettgeri M 1771; [14]) [µg/mL],"MIC ([3]; Pseudomonas aeruginosa, UI18, read-out: Minimal Inhibitory Concentration MIC) [µg/mL]","MIC ([7]; Enterobacter cloacae, MA2646, read-out: Minimal Inhibitory Concentration MIC) [µg/mL]","MIC ([5]; Klebsiella pneumoniae, MGH2, read-out: Minimal Inhibitory Concentration MIC) [µg/mL]"
"Cc1c(F)c(N2CCNCC2)c(F)c2c1c(=O)c(C(=O)O)cn2C1CC1 [Ex. 1, 1-Cyclopropyl-6,8-difluoro-1,4-dihydro-5-methyl-4-oxo-7-(1-piperazinyl)-3-quinolinecarboxylic acid]",0.05,0.025,0.05,0.2,0.025,0.025,0.025,0.025,0.025,0.05,,,,,
